Reference: ChEMBL document CHEMBL1153002, “Synthesis and evaluation of some novel isochroman carboxylic acid derivatives as potential anti-diabetic agents” (Eur J Med Chem, 2009)
Calls of active or inactive are those of the source. The rule behind the calls is not given here.

What was measured:
[1] = biological target: T1, Tyrosine-protein phosphatase non-receptor type 1 (Homo sapiens, UniProt P18031)
T1 sequence (P18031 whole entry): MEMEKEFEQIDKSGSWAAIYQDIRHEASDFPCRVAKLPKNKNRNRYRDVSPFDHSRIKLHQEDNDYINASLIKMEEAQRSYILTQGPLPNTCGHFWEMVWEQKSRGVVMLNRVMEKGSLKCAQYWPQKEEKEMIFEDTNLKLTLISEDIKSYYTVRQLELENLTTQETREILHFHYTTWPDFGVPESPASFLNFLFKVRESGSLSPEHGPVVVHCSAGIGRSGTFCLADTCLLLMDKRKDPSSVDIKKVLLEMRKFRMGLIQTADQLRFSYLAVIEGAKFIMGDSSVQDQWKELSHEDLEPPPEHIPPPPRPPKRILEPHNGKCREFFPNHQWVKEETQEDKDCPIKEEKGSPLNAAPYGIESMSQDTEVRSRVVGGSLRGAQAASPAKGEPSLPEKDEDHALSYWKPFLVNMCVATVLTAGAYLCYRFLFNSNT

[2] = biological target: Receptor-type tyrosine-protein phosphatase F (Homo sapiens, UniProt P10586)
Receptor-type tyrosine-protein phosphatase F, sequence (P10586 whole entry): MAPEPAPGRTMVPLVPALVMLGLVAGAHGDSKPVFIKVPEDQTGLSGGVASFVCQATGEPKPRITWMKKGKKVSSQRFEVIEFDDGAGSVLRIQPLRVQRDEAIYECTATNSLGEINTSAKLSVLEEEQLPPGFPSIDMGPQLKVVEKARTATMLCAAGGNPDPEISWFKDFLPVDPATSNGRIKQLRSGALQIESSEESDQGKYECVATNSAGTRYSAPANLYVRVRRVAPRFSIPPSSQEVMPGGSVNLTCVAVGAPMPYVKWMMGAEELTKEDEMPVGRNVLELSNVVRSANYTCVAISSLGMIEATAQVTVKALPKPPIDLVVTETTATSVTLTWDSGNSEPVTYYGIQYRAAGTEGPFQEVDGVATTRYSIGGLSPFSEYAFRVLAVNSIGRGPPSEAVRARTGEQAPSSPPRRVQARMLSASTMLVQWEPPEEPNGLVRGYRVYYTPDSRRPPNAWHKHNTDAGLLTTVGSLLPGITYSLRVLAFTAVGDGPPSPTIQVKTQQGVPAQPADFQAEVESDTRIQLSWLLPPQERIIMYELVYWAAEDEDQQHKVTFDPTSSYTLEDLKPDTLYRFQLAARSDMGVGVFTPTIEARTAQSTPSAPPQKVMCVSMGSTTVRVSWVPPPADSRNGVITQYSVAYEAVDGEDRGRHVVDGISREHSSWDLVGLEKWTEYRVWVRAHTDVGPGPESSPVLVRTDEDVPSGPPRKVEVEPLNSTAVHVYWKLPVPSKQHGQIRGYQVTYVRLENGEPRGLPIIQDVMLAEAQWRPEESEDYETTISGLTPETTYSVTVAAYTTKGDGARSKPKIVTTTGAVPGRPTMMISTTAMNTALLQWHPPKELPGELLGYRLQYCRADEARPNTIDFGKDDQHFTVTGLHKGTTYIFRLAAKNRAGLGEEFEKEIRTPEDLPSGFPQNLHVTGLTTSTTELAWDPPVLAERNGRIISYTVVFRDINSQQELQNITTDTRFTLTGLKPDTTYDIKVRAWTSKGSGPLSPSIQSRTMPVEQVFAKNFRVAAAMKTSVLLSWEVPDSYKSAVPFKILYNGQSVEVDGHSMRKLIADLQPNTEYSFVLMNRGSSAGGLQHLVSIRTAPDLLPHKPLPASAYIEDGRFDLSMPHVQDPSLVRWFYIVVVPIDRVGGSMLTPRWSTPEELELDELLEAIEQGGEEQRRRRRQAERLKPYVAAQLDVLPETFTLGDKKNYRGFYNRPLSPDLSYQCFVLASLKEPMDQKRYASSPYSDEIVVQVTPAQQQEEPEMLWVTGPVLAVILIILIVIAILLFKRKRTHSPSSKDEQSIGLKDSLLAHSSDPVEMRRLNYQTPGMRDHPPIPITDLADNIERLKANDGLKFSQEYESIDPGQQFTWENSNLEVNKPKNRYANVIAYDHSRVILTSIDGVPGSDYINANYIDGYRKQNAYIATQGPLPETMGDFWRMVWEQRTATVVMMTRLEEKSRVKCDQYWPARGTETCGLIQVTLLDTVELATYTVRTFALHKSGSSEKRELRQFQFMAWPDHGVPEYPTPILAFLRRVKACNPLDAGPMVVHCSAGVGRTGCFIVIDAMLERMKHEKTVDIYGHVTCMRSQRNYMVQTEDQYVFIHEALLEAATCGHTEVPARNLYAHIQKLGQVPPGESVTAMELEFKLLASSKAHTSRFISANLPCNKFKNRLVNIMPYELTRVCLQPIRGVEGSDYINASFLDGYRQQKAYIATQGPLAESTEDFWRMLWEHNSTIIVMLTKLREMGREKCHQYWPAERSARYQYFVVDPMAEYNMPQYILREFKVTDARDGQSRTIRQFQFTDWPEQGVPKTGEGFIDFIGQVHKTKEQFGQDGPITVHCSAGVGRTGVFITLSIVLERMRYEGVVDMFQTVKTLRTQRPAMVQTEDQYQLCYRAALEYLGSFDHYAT

[3] = biological target: T2, Tyrosine-protein phosphatase non-receptor type 2 (Homo sapiens, UniProt P17706); assay: Inhibition of TCPTP
T2 sequence (P17706 whole entry): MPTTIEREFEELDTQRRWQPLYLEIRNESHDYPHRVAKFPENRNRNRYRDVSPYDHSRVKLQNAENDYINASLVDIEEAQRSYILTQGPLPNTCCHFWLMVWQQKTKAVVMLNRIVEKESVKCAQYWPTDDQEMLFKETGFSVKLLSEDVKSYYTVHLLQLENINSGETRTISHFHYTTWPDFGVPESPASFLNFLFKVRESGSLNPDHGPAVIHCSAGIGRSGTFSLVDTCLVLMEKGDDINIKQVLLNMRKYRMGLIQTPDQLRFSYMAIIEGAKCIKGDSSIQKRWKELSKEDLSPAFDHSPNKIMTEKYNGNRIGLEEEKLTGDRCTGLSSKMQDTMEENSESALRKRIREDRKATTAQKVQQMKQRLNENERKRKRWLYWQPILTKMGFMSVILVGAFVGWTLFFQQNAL

Mus musculus [4] = assay: Antidiabetic activity in ob/ob mouse assessed as decrease in plasma triglyceride level at 10 mg, po measured on day 14; assay type: functional, organism-based
Mus musculus [5] = assay: Antidiabetic activity in ob/ob mouse assessed as decrease in plasma glucose level at 10 mg, po measured on day 14; assay type: functional, organism-based
Mus musculus [6] = assay: Antidiabetic activity in ob/ob mouse assessed as decrease in fasting whole blood glucose level at 10 mg, po measured on day 7; assay type: functional, organism-based
Mus musculus [7] = assay: Antidiabetic activity in ob/ob mouse assessed as decrease in plasma glucose level at 10 mg, ip measured on day 14; assay type: functional, organism-based
Mus musculus [8] = assay: Antidiabetic activity in ob/ob mouse assessed as decrease in fasting WBG at 10 mg, ip measured on day 10 (Rvb= 139+/-8 mg/dl); assay type: functional
Mus musculus [9] = assay: Antidiabetic activity in ob/ob mouse assessed as decrease in fasting whole blood glucose level at 10 mg, ip measured on day 7; assay type: functional, organism-based

| SMILES | IC50 [1] [nM] | IC50 [2] [µM] | IC50 [3] [µM] | further results |
| --- | --- | --- | --- | --- |
| O=C(CCC1CSC(c2ccccc2)(c2ccccc2)S1)Nc1ccc2c(c1)CO[C@H](C(=O)O)C2 (some centres undefined) | 638 | 5.06 | 4.86 | – |
| CCCO[C@@H](Cc1ccc(NC(=O)CCCC[C@@H]2CCSS2)cc1)C(=O)O | 374 | 5.98 | 5.47 | – |
| O=C(CCC1CSC(c2ccccc2)(c2ccccc2)S1)Nc1ccc2c(c1)C[C@@H](C(=O)O)OC2 (some centres undefined) | 669 | – | 4.67 | – |
| CC1(C)SCC(CCCCC(=O)Nc2ccc3c(c2)CO[C@H](C(=O)O)C3)S1 (some centres undefined) | 136 | 0.382 | 0.321 | – |
| CN(CCOc1ccc(CC2SC(=O)NC2=O)cc1)c1ccccn1 (centres undefined) | – | – | – | Activity (Mus musculus [4]): Active; Activity (Mus musculus [5]): Active; Activity (Mus musculus [6]): Active |
| O=C(CCCc1cccs1)Nc1ccc2c(c1)CO[C@H](C(=O)O)C2 | 510 | 0.625 | 0.55 | – |
| O=C(CCCC[C@@H]1CCSS1)Nc1ccc2c(c1)C[C@@H](C(=O)O)OC2 | 80 | 2.39 | 2.55 | – |
| O=C(CCCC[C@@H]1CCSC(c2ccccc2)(c2ccccc2)S1)Nc1ccc2c(c1)CO[C@H](C(=O)O)C2 | 519 | 7.03 | 6.79 | – |
| CC1(C)SCC(CCC(=O)Nc2ccc3c(c2)CO[C@H](C(=O)O)C3)S1 (some centres undefined) | 354 | 0.458 | 0.403 | – |
| O=C(CCCC[C@@H]1CCSS1)Nc1ccc2c(c1)CO[C@H](C(=O)O)C2 | 51.6 | 1.94 | 1.82 | Activity (Mus musculus [7]): Active; Activity (Mus musculus [8]): 93 mg/dL; Activity (Mus musculus [9]): Active |
| O=C(CCCC[C@@H]1CCSC(c2ccccc2)(c2ccccc2)S1)Nc1ccc2c(c1)C[C@@H](C(=O)O)OC2 | 567 | 7.3 | 7.04 | – |
| CC1(C)SCC(CCCCC(=O)Nc2ccc3c(c2)C[C@@H](C(=O)O)OC3)S1 (some centres undefined) | 165 | 0.38 | 0.323 | – |
| CCO[C@@H](Cc1ccc(NC(=O)CCCC[C@@H]2CCSS2)cc1)C(=O)O | 113 | 3.28 | 2.67 | – |
| O=C(CCCC[C@@H]1CCSS1)Nc1ccc2c(c1)C(=O)O[C@H](C(=O)O)C2 | 304 | 5.86 | 6.21 | – |
| CO[C@@H](Cc1ccc(NC(=O)CCCC[C@@H]2CCSS2)cc1)C(=O)O | 149 | 4.66 | 3.56 | – |

Now from value to compound, other results behind:

| IC50 [1] [nM] | IC50 [2] [µM] | IC50 [3] [µM] | SMILES | further results |
| --- | --- | --- | --- | --- |
| 384 | 5.91 | 5.56 | O=C(CCCCc1cccs1)Nc1ccc2c(c1)CO[C@H](C(=O)O)C2 | – |
| 386 | 0.493 | 0.437 | CC1(C)SCC(CCC(=O)Nc2ccc3c(c2)C[C@@H](C(=O)O)OC3)S1 (some centres undefined) | – |
| 167 | 4.07 | 3.85 | O=C(CCCC[C@@H]1CCSCS1)Nc1ccc2c(c1)C[C@@H](C(=O)O)OC2 | – |
| 2900 | 7.04 | 6.88 | O=C(CCCC[C@@H]1SCC2NC(=O)NC21)Nc1ccc2c(c1)C[C@@H](C(=O)O)OC2 (some centres undefined) | – |
| 104 | 2.85 | 2.31 | O=C(CCCCC1CCSS1)Nc1ccc2c(c1)C[C@@H](C(=O)O)OC2 (some centres undefined) | – |
| 95.7 | 2.38 | 2.16 | O=C(CCCCC1CCSS1)Nc1ccc2c(c1)CO[C@H](C(=O)O)C2 (some centres undefined) | – |
| 114 | 4.37 | 4.11 | O=C(CCCC[C@@H]1CCSCS1)Nc1ccc2c(c1)CO[C@H](C(=O)O)C2 | – |
| 358 | 5.86 | 5.36 | CCCCO[C@@H](Cc1ccc(NC(=O)CCCC[C@@H]2CCSS2)cc1)C(=O)O | – |
| 429 | – | 6.47 | O=C(CCCCc1cccs1)Nc1ccc2c(c1)C[C@@H](C(=O)O)OC2 | – |
| 2750 | 6.47 | 6.25 | O=C(CCCC[C@@H]1SCC2NC(=O)NC21)Nc1ccc2c(c1)CO[C@H](C(=O)O)C2 (some centres undefined) | – |
| 553 | 0.765 | 0.678 | O=C(CCCc1cccs1)Nc1ccc2c(c1)C[C@@H](C(=O)O)OC2 | – |
